This test relates to HeLa cells stably transfected to express GalNAcT2-GFP (Golgi). Kind of test: Incubation with premixed/preassembled Cer-SiR (Golgi labeling). It is filed as cell-based. The note with it: approximately 2 μM Cer-SiR solution; three protocols A-C. The protocol:
An approximately 2 μM solution of Cer-SiR was prepared as follows: Stock solutions in DMSO of SiR-Tz and Cer-TCO were added to a PBS buffer supplemented with 1% casein to achieve a final concentration of 2 μM for both components. The solution was thoroughly mixed and incubated for 15 min at room temperature. Before the solution was added to dishes containing cells, Pluronic F-127 was added (0.2% final concentration). The formation of Cer-SiR was confirmed by HPLC.
Protocol A: HeLa cells stably transfected to express GalNAcT2-GFP were cultured on 35 mm glass bottom dishes (Mattek), washed with DMEM (3×) and incubated with the Cer-SiR solution (prepared as described elsewhere herein) for 5 min at 37° C. The dish was washed with DMEM (3×) and incubated at 19.5° C. for 60 min, washed with DMEM (3×) and imaged.
Protocol B: Same as protocol A, but without the wash step before the incubation at 19.5° C.
Protocol C: HeLa cells stably transfected to express GalNAcT2-GFP were cultured on 35 mm glass bottom dishes (Mattek), washed with DMEM (3×) and incubated with the Cer-SiR solution described for 30 min at 4° C. The dish was washed with DMEM (3×) and incubated at 37° C. for 30 min, washed with DMEM (3×) and imaged. This protocol was similar to the protocol used for Golgi labeling with BODIPY-Cer.

The structures appear in SMILES notation. “Also recorded” adds a separate entry of the source.

With `CCCCCCCCCCCCC/C=C/[C@@H](O)[C@H](CO)NC(=O)CCCCCNC(=O)OC1CCCC2=C(c3ccc(CNC(=O)c4ccc(C(=O)[O-])c(C5=C6C=CC(=[N+](C)C)C=C6[Si](C)(C)c6cc(N(C)C)ccc65)c4)cc3)NN=CC2CC1` (stereo partly drawn) [Cer-SiR, 4-((4-(7-(((6-(((2S,3R,E)-1,3-dihydroxyoctadec-4-en-2-yl)amino)-6-oxohexyl)carbamoyl)oxy)-2,4a,5,6,7,8,9,10-octahydrocycloocta[d]pyridazin-1-yl)benzyl)carbamoyl)-2-(7-(dimethylamino)-3-(dimethyliminio)-5,5-dimethyl-3,5-dihydrodibenzo[b,e]silin-10-yl)benzoate], the “Golgi labeling with preassembled Cer-SiR” value is reported as “not suitable for Golgi labeling; also recorded: did not lead to Golgi labeling”.

The values above are taken from US10087199B2, “Super-resolution imaging compositions and methods using same” (Yale University, priority 2014, dated 2018).
